Data reported in PMC12670405, “Second-Generation AURKA-Targeting PROTACs: Structural Optimization toward in Vivo Degradation in Neuroblastoma” (Journal of Medicinal Chemistry, 2025).
Where two headings read alike, the source gives them in different places.

Key:
Plasma stability assay = format: in vitro ADME, CD-1 mouse; details: for half-life at 1 μM: read-out: plasma t1/2
Description: (§1) Plasma and metabolic stability tests were performed by Eurofins Discovery. For the plasma stability assay, test compounds were incubated in CD-1 mouse plasma for 0, 0.5, 1, 1.5, and 2 h at 37 °C at a concentration of 1 μM. For the metabolic stability assay, test compounds were incubated at 37 °C in either (1) CD-1 mouse liver microsomes (MLM) (0.1 mg/mL) at a concentration of 0.1 μM for 0, 15, 30, 45, and 60 min or (2) CD-1 mouse hepatocytes (MH) (0.7 million viable cells/mL) at a concentration of 1 μM for 0, 0.5, 1, 1.5, and 2 h. At the respective time points, acetonitrile was added to the incubation mixture followed by centrifugation. Samples were analyzed by HPLC-MS/MS and peak areas were recorded for each analyte. Compound stability, expressed as the percentage of parent compound remaining, was calculated by comparing the peak area of the compound at each time point relative to that of the 0h time point. Percentage compound remaining is plotted as a function of time as a logarithmic curve. Half-life (t 1/2) is estimated from the slope of the initial linear range of the curve, assuming first-order kinetics. […] Both plasma and metabolic assay experiments were performed once with 2 replicate samples each.

[1] = Metabolic stability in mouse liver microsomes (MLM); format: in vitro ADME, CD-1 mouse; details: CD-1
Description: as §1

NGP = test: IncuCyte live-cell imaging, antiproliferative effect; format: cell-based; details: Homo sapiens, 72 h
Description: Human neuroblastoma cell lines NGP, IMR-32, SJNB-8, SK-N-BE(2)-C, SJNB-1, SK-N-SH and SK-N-AS, as well as benign immortalized cell lines RPE and HEK293T were either bought commercially or obtained through research laboratories. […] Screening for mycoplasma contamination occurred routinely on the cells. Human neuroblastoma cell lines SH-SY5Y_shABCB1 & SH-SY5Y_shNTC were generated by transduction with pLKO.1-ABCB1_TRCN0000059683 shRNA (Sigma MISSION SHCLND) or pLKO.1-puro NT shRNA (Sigma MISSION SHC002) vectors respectively (Supplementary Table S6), packaged using Lenti-X293T (Clontech). Transduced cells were selected with 2 μg/mL puromycin. These cells were cultured in DMEM 4.5 g/L D-Glucose, L-Glutamine and 110 mg/L Sodium Pyruvate (Gibco, #11995065) supplemented with 10% fetal bovine serum, 1× Antibiotic-Antimycotic solution (Sigma-Aldrich, #A5955) and 1× MEM nonessential amino acids (Sigma-Aldrich, #M7145). Incubation of all cells occurred at 37 °C and 5% CO2.
Neuroblastoma cells were seeded in 384-well plates at different densities ranging from 1200 to 5000 cells/well and allowed to adhere overnight. RPE and HEK293T were seeded at 200 and 600 cells/well, respectively. Compound treatment was performed using the D300e Digital Dispenser (Tecan) in duplicate or triplicate and cell confluency was monitored over time using the IncuCyte Live-cell imaging system (Sartorius). […] Mean normalized confluences were calculated from 3 individual experiments.
All dose–response curves were computed on GraphPad Prism using the Variable Slope (four parameters) equation. Absolute half-maximal degradation (DC50), growth inhibitory (GI50) and enzymatic inhibitory (IC50) concentrations, as well as inhibition constants (Ki) were derived from dose–response curves via interpolation. Statistical tests were performed on GraphPad Prism and detailed in the figure legends. Unless otherwise stated, “n” in the figure legends indicates the number of independent experiments conducted at different times.

AURKA = target: T1, AURKA (Homo sapiens, UniProt O14965); test: AURKA degradation, Simple Western; format: cell-based; parameters: Representative Western blot showing levels of endogenous proteins MDR1, MYCN, AURKA, and CRBN in untreated cell lines; endogenous in cells; host or cells: NGP, IMR-32, SJNB-8, SK-N-BE(2)-C, SK-N-SH, SK-N-AS, SJNB-1, RPE, HEK293T; details: for pDC50: AURKA degradation; for DC50: read-out: AURKA DC50;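 for AURKA Degradation 24h @1000nM: measured in NGP neuroblastoma cells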;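 for AURKA Degradation 24h @100nM: measured in NGP neuroblastoma cells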
T1 sequence (O14965 1-403): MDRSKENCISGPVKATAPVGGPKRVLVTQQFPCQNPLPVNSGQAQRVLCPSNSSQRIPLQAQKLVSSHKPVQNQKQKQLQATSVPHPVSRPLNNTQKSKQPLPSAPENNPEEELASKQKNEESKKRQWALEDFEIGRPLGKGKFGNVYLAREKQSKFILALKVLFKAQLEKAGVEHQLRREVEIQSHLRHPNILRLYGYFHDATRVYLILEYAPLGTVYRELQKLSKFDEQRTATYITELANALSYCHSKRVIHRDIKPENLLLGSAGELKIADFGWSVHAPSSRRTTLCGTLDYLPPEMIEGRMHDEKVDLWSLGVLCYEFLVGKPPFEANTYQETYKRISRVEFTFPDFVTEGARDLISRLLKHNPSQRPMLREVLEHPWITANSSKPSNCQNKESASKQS
Description: Cells were seeded in T-25 flasks at different densities ranging from 1 to 2 million cells per flask and allowed to adhere for 1–2 days. In experiments involving compound treatment, this was done by medium replacement containing the compound(s) of interest in their corresponding concentrations. In competition binding experiments, cells were first pretreated with an excess of MK-5108, thalidomide or MG-132 for 1 h by shaking gently at room temperature prior to addition of SK4454 or SK5527. All samples were normalized to contain the same percentage of DMSO as the negative DMSO controls. Cells were harvested on ice at their respective time points by scraping, washed with ice-cold PBS to collect remaining cells, and centrifuged (2500 rpm, 4 °C). A second washing and centrifugation step was performed prior to collection of the final cell pellets which were then snap-frozen in liquid nitrogen and kept frozen at −80 °C until further processing. Lysis of cell pellets occurred in cold RIPA buffer (0.5% w/v Sodium Deoxycholate, 150 mM NaCl, 50 mM TrisHCl pH 7.5, 0.1% w/v SDS, 1% w/v NP-40) supplemented with protease and phosphatase inhibitors (Roche, #11836145001, #04906845001) by rotating gently at 4 °C for 1h, followed by a centrifugation step for 10 min (10,000 rpm, 4 °C). The supernatant was collected and concentrations of the obtained protein lysates were measured using the Pierce BCA Protein Assay Kit (Thermo Fisher Scientific, #23227).
Simple Western analyses were performed with the Wes instrument (Bio-Techne) using the 12–230 kDa Wes Separation module and the EZ standard pack reagent 1 (Biotechne, #SM-W001, #PS-ST01EZ-8) following the manufacturer’s protocol. Protein lysates were loaded at 0.8 μg/μL under denaturing conditions (0.2 μg/μL for MYCN detection). Chemiluminescence peaks were generated by the Compass Software (Bio-Techne) and the area under the peaks calculated using the Gaussian fit method. Per lane, quantified data were always normalized to that of the loading control (Vinculin) prior to calculating fold changes relative to the negative DMSO control. Mean fold changes are calculated from 3 individual experiments. A list of the primary and secondary antibodies used can be found in the Supporting Information (Supplementary Table S7).
Graphs were generated using GraphPad Prism Software (version 10.1.2) or RStudio (R-4.3.2). All dose–response curves were computed on GraphPad Prism using the Variable Slope (four parameters) equation. Absolute half-maximal degradation (DC50), growth inhibitory (GI50) and enzymatic inhibitory (IC50) concentrations, as well as inhibition constants (Ki) were derived from dose–response curves via interpolation. Statistical tests were performed on GraphPad Prism and detailed in the figure legends. Unless otherwise stated, “n” in the figure legends indicates the number of independent experiments conducted at different times.

[2] = Metabolic stability in mouse hepatocytes (MH); format: in vitro ADME, CD-1 mouse; details: CD-1
Description: as §1

Row | half-life at 1 μM (Plasma stability assay; CD-1, mouse, plasma) | microsomal CLint at 0.1 μM [1] | AURKA Degradation 24h @100nM (AURKA) | AURKA Degradation 24h @1000nM (AURKA) | half-life at 1 μM (Plasma stability assay; CD-1 mouse plasma, 1 μM, 37 °C) | pDC50 (AURKA) | Dmax (AURKA; NGP, 24 h treatment) | DC50 (AURKA) | plasma t1/2 (Plasma stability assay; plasma) | DC50 (AURKA; NGP, 24 h treatment) | hepatocyte CLint at 1 μM [2] | SMILES | GI50 (NGP; read-out: GI50 72h, 72h) | GI50 (NGP; read-out: pGI50 (converted)) | AURKA degradation activity (in words) (AURKA; NGP, 24 h treatment)
1 | > 2 h | 1480 µL/min/mg | 72 | 66 | – | – | – | – | – | – | – | O=C1CCC(N2C(=O)c3cccc(N4CCN(CCOCCOCCNC(=O)[C@]5(Cc6cccc(Nc7nccs7)n6)CC[C@@H](Oc6cccc(Cl)c6F)CC5)CC4)c3C2=O)C(=O)N1 (stereo partly drawn) [PROTAC 1] | 63 nM | 63.1 nM | –
2 | – | 456 µL/min/mg | 80 | 77 | 1.32 h | 8,06 | 81% | 8.7 nM | – | – | – | O=C1CCC(N2C(=O)c3cccc(OCCOCCOCCN4CCN(C(=O)[C@]5(Cc6cccc(Nc7nccs7)n6)CC[C@@H](Oc6cccc(Cl)c6F)CC5)CC4)c3C2=O)C(=O)N1 (stereo partly drawn) [PROTAC 3] | 42 nM | 41.7 nM | –
3 | – | 656 µL/min/mg | 85 | 93 | > 2 h | 8,32 | 97% | 4.8 nM | > 2 h | 5 nM | – | O=C1CCC(N2C(=O)c3ccc(N4CCN(CCNC(=O)[C@]5(Cc6cccc(Nc7nccs7)n6)CC[C@@H](Oc6cccc(Cl)c6F)CC5)CC4)cc3C2=O)C(=O)N1 (stereo partly drawn) [PROTAC 4] | 44 nM | 44.7 nM | –
4 | – | 739 µL/min/mg | 61 | 73 | > 2 h | 7,36 | 76% | 43.8 nM | > 2 h | – | – | O=C1CCC(Nc2ccc(N3CCN(C(=O)CNC(=O)[C@]4(Cc5cccc(Nc6nccs6)n5)CC[C@@H](Oc5cccc(Cl)c5F)CC4)CC3)cc2)C(=O)N1 (stereo partly drawn) [PROTAC 14] | 46 nM | 45.7 nM | significantly stronger degradation activity
5 | > 2 h | 693 µL/min/mg | 86 | 87 | – | – | – | – | – | – | < 4.1 µL/min/1e6 cells | O=C1CCN(Cc2ccc(C3CCN(C4CN(C(=O)[C@]5(Cc6cccc(Nc7nccs7)n6)CC[C@@H](Oc6cccc(Cl)c6F)CC5)C4)CC3)nc2)C(=O)N1 [PROTAC 22] | 46 nM | 46.8 nM | –
6 | > 2 h | 1060 µL/min/mg | 88 | 93 | – | – | – | – | – | – | – | O=C1CCN(c2ccc(N3CCN(CC4(F)CCN(C(=O)[C@]5(Cc6cccc(Nc7nccs7)n6)CC[C@@H](Oc6cccc(Cl)c6F)CC5)CC4)CC3)nc2)C(=O)N1 [PROTAC 27] | 46 nM | 46.8 nM | –
7 | – | – | 83 | 91 | – | – | – | – | – | – | – | Cc1cc(Nc2ccc(F)c(CC3(C(=O)N4CCC(F)(C(=O)N5CCN(c6ccc(N7CCC(=O)NC7=O)cn6)CC5)CC4)CCN(Cc4cccc(Cl)c4F)CC3)n2)n[nH]1 [PROTAC 34] | 84 nM | 83.2 nM | –
8 | – | – | 62 | 69 | – | – | – | – | – | – | – | Cc1cc(Nc2ccc(F)c(CC3(C(=O)N4CC(N5CCC(c6ccc(N7CCC(=O)NC7=O)cn6)CC5)C4)CCN(Cc4cccc(Cl)c4F)CC3)n2)n[nH]1 [PROTAC 35] | 332 nM | 331 nM | –
9 | – | – | 58 | 78 | – | – | – | – | – | – | – | Cc1cc(Nc2ccc(F)c(CC3(C(=O)N4CCC(CN5CCC(c6ccc(N7CCC(=O)NC7=O)cn6)CC5)CC4)CCN(Cc4cccc(Cl)c4F)CC3)n2)n[nH]1 [PROTAC 36] | 60 nM | 60.3 nM | –
10 | – | – | 82 | 90 | – | – | – | – | – | – | – | Cc1cc(Nc2ccc(F)c(CC3(C(=O)N4CCC(F)(C(=O)N5CCC(c6ccc(N7CCC(=O)NC7=O)cn6)CC5)CC4)CCN(Cc4cccc(Cl)c4F)CC3)n2)n[nH]1 [PROTAC 38] | 146 nM | 145 nM | –
11 | – | 1080 µL/min/mg | 81 | 75 | 1.18 h | 8,15 | 81% | 7 nM | – | – | – | O=C1CCC(N2C(=O)c3ccc(OCCOCCNC(=O)[C@]4(Cc5cccc(Nc6nccs6)n5)CC[C@@H](Oc5cccc(Cl)c5F)CC4)cc3C2=O)C(=O)N1 (stereo partly drawn) [SK3277, reference compound] | 52 nM | 52.5 nM | –
